≈ marks a conversion by molar mass, not a printed value.
How the values were obtained:
THP-1 cells = test: THP-1 host cell toxicity readout of the Ld InMac assay; assay type: cell-based; conditions: Homo sapiens; host THP-1 cells; mean of n ≥ 3; read-out: THP-1 pEC50 (converted)
Description: (§1) For the identification of DDD853651/GSK3186899, which contained a trans-1,4-cyclohexyldiamine, a key strategy was to optimise the balance between potency in the intracellular Leishmania assay (L. donovani in THP-1 cells, referred to as Ld InMac assay[9]) and solubility.[10] In that case, we focused on 2 (Table 1), where the sulfonamide was required for potency but was poorly soluble. […] To this end, we examined a 4-aminopiperidine central unit with both sulfonamide and amide substituents (Table 1). […] We therefore selected 4 as a suitable start-point for further chemistry. […] We noted that either lengthening the linker to the aromatic ring, or removing it, led to a loss of activity (6 and 7 respectively).
(§2) Intramacrophage Leishmania donovani Assay

[1] = CAD kinetic aqueous solubility; assay type: physicochemical; conditions: pH 7.4, pH7.4 phosphate buffered saline
Procedure: CAD Aqueous Solubility 11
5µl of 10mM DMSO stock solution is diluted to 100 µ l with pH7.4 phosphate buffered saline,
equilibrated for 1 hour at room temperature and filtered through Millipore MultiscreenHTS-PCF

L. donovani amastigotes = test: Ld InMac intramacrophage Leishmania donovani assay; assay type: cell-based; conditions: for EC50: Leishmania donovani, L. donovani amastigotes in THP-1 cells, mean of n ≥ 3, read-out: Ld InMac pEC50 (converted); for loss of potency (less active) versus comparator compound: versus matched comparator
Description: as §1, §2

[2] = Stability in mouse liver microsomes (intrinsic clearance); assay type: in vitro ADME; conditions: mouse liver microsomal intrinsic clearance, 0.5 μM
Procedure: Stability in Microsomes 10
Test compound (0.5 μM) was incubated with female CD1 mouse (Xenotech) liver microsomes and their action started with addition of excess NADPH (8 mg/mL 50 mM potassium phosphate buffer, pH 7.4). Immediately, at time zero, then at 3, 6, 9, 15, and 30 min, an aliquot (50 μL) of the incubation mixture was removed and mixed with acetonitrile (100 μL) to stop the reaction.
Internal standard was added to all samples, the samples centrifuged to sediment precipitated protein, and the plates then sealed prior to UPLC-MS/MS analysis using a Xevo TQs micro (Waters Corporation, USA). XLfit (IDBS, UK) was used to calculate the exponential decay and consequently the rate constant (k) from the ratio of the peak area of test compound to internal standard at each time point. The rate of intrinsic clearance (Cl i) of each test compound was then calculated using the equation Cl i (mL/min/g liver) = k × V × microsomal protein yield, where V (mL/mg protein) is the incubation volume/mg protein added and […]
microsomal protein yield is taken as 52.5 mg protein/g liver. Verapamil (0.5 μM) was used as a positive control to confirm acceptable assay performance. […]

SMILES	EC50 (THP-1 cells) [µM]	solubility at 1 h [1] [µM]	EC50 (L. donovani amastigotes) [µM]	more active than comparator compound (L. donovani amastigotes; Ld InMac, 4 versus 3) [fold]	Cli mouse [2] [ml min^–1 g^–1]	loss of potency (less active) versus comparator compound (L. donovani amastigotes; Ld InMac) [fold]
CC(C)Cc1n[nH]c2nc(N[C@H]3CC[C@H](NC(=O)Cc4ccccc4)CC3)ncc12 [Compound 3]	> 50.1	51 (≈ 20.7 µg/mL)	> 50.1	–	–	–
CC(C)Cc1n[nH]c2nc(NC3CCN(C(=O)Cc4ccccc4)CC3)ncc12 [Compound 4]	> 50.1	59 (≈ 23.2 µg/mL)	7.94	> 10	18	–
CC(C)Cc1n[nH]c2nc(NC3CCN(S(=O)(=O)Cc4ccccc4)CC3)ncc12 [Compound 5]	> 50.1	10 (≈ 4.29 µg/mL)	12.6	–	>50	> 10
CC(C)Cc1n[nH]c2nc(NC3CCN(C(=O)CCc4ccccc4)CC3)ncc12 [Compound 6]	> 50.1	–	20	–	–	–
CC(C)Cc1n[nH]c2nc(NC3CCN(C(=O)c4ccccc4)CC3)ncc12 [Compound 7]	> 50.1	291 (≈ 110 µg/mL)	> 50.1	–	7	–
CC(C)Cc1n[nH]c2nc(NC3CCN(C(=O)Cc4ccc(F)cc4F)CC3)ncc12 [Compound 8]	> 50.1	26 (≈ 11.1 µg/mL)	1.58	–	12	–
CC(C)Cc1n[nH]c2nc(NC3CCN(C(=O)Cc4ccc(Cl)cc4Cl)CC3)ncc12 [Compound 9]	> 50.1	26 (≈ 12 µg/mL)	10	–	30	–
CC(C)Cc1n[nH]c2nc(NC3CCN(C(=O)C(C)c4ccccc4)CC3)ncc12 (stereo not shown) [Compound 10]	> 50.1	140 (≈ 56.9 µg/mL)	5.01	–	–	–
CC(C)(C)Cc1n[nH]c2nc(NC3CCN(C(=O)Cc4ccc(F)cc4F)CC3)ncc12 [Compound 11]	> 50.1	27 (≈ 11.9 µg/mL)	> 50.1	–	22.0	–
O=C(Cc1ccc(F)cc1F)N1CCC(Nc2ncc3c(C4CC4)n[nH]c3n2)CC1 [Compound 12]	> 50.1	39 (≈ 16.1 µg/mL)	1.26	–	5.0	–
O=C(Cc1ccc(F)cc1F)N1CCC(Nc2ncc3c(C4CCOCC4)n[nH]c3n2)CC1 [Compound 13]	> 50.1	78 (≈ 35.6 µg/mL)	1	–	0.5	–
O=C(Cc1ccc(F)cc1F)N1CCC(Nc2ncc3c(CN4CCOCC4)n[nH]c3n2)CC1 [Compound 14]	> 50.1	–	25.1	–	<0.5	–
O=C(Cc1ccc(F)cc1F)N1CCC(Nc2ncc3c(N4CCOCC4)n[nH]c3n2)CC1 [Compound 15]	> 50.1	14 (≈ 6.4 µg/mL)	0.794	–	2	–
CC(C)Oc1n[nH]c2nc(NC3CCN(C(=O)Cc4ccc(F)cc4F)CC3)ncc12 [Compound 16]	> 50.1	33 (≈ 14.2 µg/mL)	6.31	–	–	–
O=C(Cc1ccc(F)cc1F)N1CCC(Nc2ncc3c(-c4ccccc4)n[nH]c3n2)CC1 [Compound 17]	> 50.1	< 1	0.316	–	7.2	–
O=C(Cc1ccc(F)cc1F)N1CCC(Nc2ncc3c(-c4ccccn4)n[nH]c3n2)CC1 [Compound 18]	> 50.1	23 (≈ 10.3 µg/mL)	0.794	–	6.7	–
Cn1nccc1-c1n[nH]c2nc(NC3CCN(C(=O)Cc4ccc(F)cc4F)CC3)ncc12 [Compound 19]	20	30 (≈ 13.6 µg/mL)	3.16	–	3.3	10
COc1ncccc1-c1n[nH]c2nc(NC3CCN(C(=O)Cc4ccc(F)cc4F)CC3)ncc12 [Compound 21]	> 50.1	25 (≈ 12 µg/mL)	0.0794	–	15	–
CC(C)Cc1n[nH]c2nc(N(C)C3CCN(C(=O)Cc4ccc(F)cc4F)CC3)ncc12 [Compound 22]	> 50.1	–	> 50.1	–	–	> 10
COc1ccccc1-c1n[nH]c2nc(OC3CCN(C(=O)Cc4ccc(F)cc4F)CC3)ncc12 [Compound 23]	> 50.1	–	20	–	–	> 10
CC(C)Cc1nn(C)c2nc(NC3CCN(C(=O)Cc4ccc(F)cc4F)CC3)ncc12 [Compound 24]	> 50.1	–	> 50.1	–	–	> 10

SMILES	EC50 (THP-1 cells) [µM]	solubility at 1 h [1] [µM]	EC50 (L. donovani amastigotes) [µM]	more active than comparator compound (L. donovani amastigotes; Ld InMac, 4 versus 3) [fold]	Cli mouse [2] [ml min^–1 g^–1]	loss of potency (less active) versus comparator compound (L. donovani amastigotes; Ld InMac) [fold]
CC(C)Cc1noc2nc(NC3CCN(C(=O)Cc4ccc(F)cc4F)CC3)ncc12 [Compound 25]	> 50.1	–	> 50.1	–	–	> 10
COc1ccccc1-c1c[nH]c2nc(NC3CCN(C(=O)Cc4ccc(F)cc4F)CC3)ncc12 [Compound 26]	> 50.1	–	> 50.1	–	–	> 10
COc1ccccc1C(=O)c1cnc(NC2CCN(C(=O)Cc3ccc(F)cc3F)CC2)nc1N [Compound 27]	10	–	6.31	–	–	–
COc1ccccc1C(=O)c1cnc(NC2CCN(C(=O)Cc3ccc(F)cc3F)CC2)nc1 [Compound 28]	> 50.1	–	6.31	–	–	–
O=C(Cc1ccc(F)cc1F)N1CCC[C@H](Nc2ncc3c(-c4ccccn4)n[nH]c3n2)C1 [Compound 29]	> 50.1	–	12.6	–	–	–
O=C(Cc1ccc(F)cc1F)N1CCC[C@@H](Nc2ncc3c(-c4ccccn4)n[nH]c3n2)C1 [Compound 30]	> 50.1	–	> 50.1	–	–	–
COc1ccccc1-c1n[nH]c2nc(N[C@H]3CCC[C@@H](NC(=O)Cc4ccc(F)cc4F)C3)ncc12 [Compound 31]	25.1	–	31.6	–	–	–
COc1ccccc1-c1n[nH]c2nc(N[C@H]3CCC[C@H](NC(=O)Cc4ccc(F)cc4F)C3)ncc12 [Compound 32]	31.6	–	15.8	–	–	–
COc1ccccc1-c1n[nH]c2nc(NC3(C)CCN(C(=O)Cc4ccc(F)cc4F)CC3)ncc12 [Compound 33]	39.8	–	3.98	–	–	–
O=C(Cc1ccc(F)cc1F)N1CCC(CNc2ncc3c(-c4ccccn4)n[nH]c3n2)CC1 [Compound 34]	> 50.1	–	> 50.1	–	–	–
COc1ccccc1-c1n[nH]c2nc(NCC3CN(C(=O)Cc4ccc(F)cc4F)C3)ncc12 [Compound 35]	> 50.1	–	> 50.1	–	–	–
CC(C)(CNC(=O)Cc1ccc(F)cc1F)Nc1ncc2c(-c3ccccn3)n[nH]c2n1 [Compound 36]	> 50.1	–	> 50.1	–	–	–
COc1ccccc1-c1n[nH]c2nc(NC3CCN(S(=O)(=O)CCC(F)(F)F)CC3)ncc12 [Compound 37]	> 50.1	< 1	0.2	–	14	–
CCOC(=O)N1CCC(Nc2ncc3c(-c4ccccc4OC)n[nH]c3n2)CC1 [Compound 38]	39.8	24 (≈ 9.51 µg/mL)	0.501	–	14	–
COc1ccccc1-c1n[nH]c2nc(NC3CCN(C(=O)OCc4ccccc4)CC3)ncc12 [Compound 39]	> 50.1	–	0.398	–	9	–
COc1ccccc1-c1n[nH]c2nc(NC3CCN(C(=O)N4CCOCC4)CC3)ncc12 [Compound 40]	> 50.1	79 (≈ 34.6 µg/mL)	2	–	2	–
COc1ccccc1-c1n[nH]c2nc(NC3CCN(C(=O)Cc4ccc(F)c(F)c4)CC3)ncc12 [Compound 43]	15.8	53 (≈ 25.4 µg/mL)	0.0251	–	6.3	–
O=C(CC1CC1)N1CCC(Nc2ncc3c(-c4ccccn4)n[nH]c3n2)CC1 [Compound 45]	> 50.1	≥ 392	5.01	–	–	–
O=C(CC1CC1)N1CCC(Nc2ncc3c(N4CCOCC4)n[nH]c3n2)CC1 [Compound 46]	> 50.1	–	15.8	–	–	–
C[C@@H]1[C@H](O)[C@@H](C)/C=C/C=C/C=C/C=C/C=C/C=C/C=C/[C@H](O[C@@H]2O[C@H](C)[C@@H](O)[C@H](N)[C@@H]2O)C[C@@H]2O[C@](O)(C[C@@H](O)C[C@@H](O)[C@H](O)CC[C@@H](O)C[C@@H](O)CC(=O)O[C@H]1C)C[C@H](O)[C@H]2C(=O)O [amphotericin B, reference compound]	–	–	0.2	–	–	–
CCCCCCCCCCCCCCCCOP(=O)([O-])OCC[N+](C)(C)C [miltefosine, reference compound]	–	–	0.794	–	–	–
